These results are taken from patent publication US10550140B2 (Achillion Pharmaceuticals, Inc., priority 2014, dated 2020).

For this experiment, the target named is Human factor D (Homo sapiens (Human), UniProt P00746). Nature of the experiment: Human Factor D Assay. Format: biochemical. As to the method: The assay of Example 8 was used to determine the IC50's of the compounds. Other standard factor D inhibition assays are also available.
Example 8. Human Factor D Assay
Human factor D (purified from human serum, Complement Technology, Inc.) at 80 nM final concentration is incubated with test compound at various concentrations for 5 minutes at room temperature in 50 mM Tris, 1M NaCl, pH 7.5. A synthetic substrate Z-L-Lys-SBzl and DTNB (Ellman's reagent) are added to final concentrations of 100 μM each. The increase in color is recorded at OD405 nm in a microplate in kinetic mode over 30 minutes with 30 second time points in a spectrofluorimeter. IC50 values are calculated by non-linear regression from the percentage of inhibition of complement factor D activity as a function of test compound concentration.

Sequence of Human factor D (P00746 26-253): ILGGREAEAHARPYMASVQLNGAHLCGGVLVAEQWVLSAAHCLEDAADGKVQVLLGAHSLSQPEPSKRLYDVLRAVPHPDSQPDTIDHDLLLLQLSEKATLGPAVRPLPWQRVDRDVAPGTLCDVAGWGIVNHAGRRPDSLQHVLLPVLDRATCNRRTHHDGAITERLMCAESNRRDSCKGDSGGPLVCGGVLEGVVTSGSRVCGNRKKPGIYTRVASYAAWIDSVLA

`CC(=O)c1cn(CC(=O)N2C[C@H](F)C[C@H]2C(=O)Nc2cccc(Br)c2)c2ccc(Oc3ncc(Br)cn3)cc12` [Compound 35]: the IC50 was less than 1 µM.
